Here are results for eight molecules from US7045523B2 (Novartis AG, priority 2001, dated 2006).

A value given as a limit tells only on which side of the number the result lay.

One series deals with K562 cells. In words: Apoptosis assay, flow cytometry with APO2.7 mAb, in K562 cells with or without 10 days of telomestatin. The format is cell-based. Conditions: for induction of apoptosis / chemosensitivity in telomestatin-treated K562 cells compared with control cells: after exposure to the agent, the negative results are data not shown; for APO2.7 (%): 48 hours, K562 control cells or cells cultured with telomestatin 2 μM for 10 days. How it is done:
Apoptosis assay. The incidence of apoptosis was determined by flow cytometric analysis with the FITC-conjugated APO2.7 monoclonal antibody (clone 2.7), which was raised against the 38 kDa mitochondrial membrane protein (7A6 antigen) and is expressed by cells undergoing apoptosis (Nakajima et al., 2001).
To assess the effects of telomerase inhibition in modulating responses to these reagents, experiments focused on early passaged telomestatin-treated K562 cells (PD10). In this series of experiments, K562 cells are cultured with telomestatin for 10 days, subsequently the telomestatin-treated K562 cells are incubated with the agents for 48 hours, and the incidence of apoptosis is determined by flow cytometric analysis with APO2.7 mAb (Table A). Apo2.7 is the apoptosis index. Higher score means that apoptosis is induced more powerfully.

Series [1] deals with human normal hematopoietic progenitor cells. Put plainly: Clonogenic assay on normal hematopoietic progenitor cells. In kind it is cell-based. As to conditions: at concentrations 10 times higher than those that completely inhibit colonies from OM9;22R cells.
Another series deals with OM9;22 or OM9;22R cells. In words: Cell proliferation (growth kinetics) of OM9;22 / OM9;22R cells. Conditions: OM9;22 or Imatinib-resistant OM9;22R cells. In kind it is cell-based, human. The procedure: Cells and cell culture: The Ph-positive acute lymphoblastic cell line OM9;22 has been described previously (Ohyashiki et al., 1993). K562 cells were obtained from the American Type Culture Collection (Rockville, Md.). These cell lines were cultured in McCoy's 5A modified medium (Life Technology, Inc.) supplemented with 10% fetal calf serum (Hyclone Laboratories, Logan, Utah).
Effects of telomestatin on cell proliferation. We characterize the growth properties of telomestatin-treated cells. […] In a further study, we can characterize the ability of telomestatin to inhibit BCR-ABL transformation.

`Sc1ncnc2nc[nH]c12` [6-mercaptopurine (6-MP), 6-mercaptopurine]: the “induction of apoptosis / chemosensitivity in telomestatin-treated K562 cells compared with control cells” value in the series on K562 cells is listed as “significant chemosensitivity is not observed”.
Turning to `COc1cccc2c1C(=O)c1c(O)c3c(c(O)c1C2=O)C[C@@](O)(C(C)=O)C[C@@H]3O[C@H]1C[C@H](N)[C@H](O)[C@H](C)O1` [DNR (control), Daunorubicin], the “APO2.7 (%)” value with K562 cells (10 nM agent) is given as 11%; in the series with K562 cells (50 nM agent), 23%; with K562 cells (100 nM agent), 36%; in the series with K562 cells (500 nM agent), 53%. Moreover, the “induction of apoptosis / chemosensitivity in telomestatin-treated K562 cells compared with control cells” value with K562 cells was “enhanced induction of apoptosis”.
Regarding `O=C1c2c(O)ccc(O)c2C(=O)c2c(NCCNCCO)ccc(NCCNCCO)c21` [MIT (control), mitoxantrone], the “APO2.7 (%)” value in the series on K562 cells (10 nM agent) is 10%; in the series with K562 cells (50 nM agent), 12%; with K562 cells (100 nM agent), 17%; in the series on K562 cells (500 nM agent), 29%; in the series on K562 cells (1000 nM agent) it was 38%. In the series on K562 cells, the “induction of apoptosis / chemosensitivity in telomestatin-treated K562 cells compared with control cells” value is given as “enhanced induction of apoptosis”.
Take `CC[C@]1(O)C[C@H]2CN(CCc3c([nH]c4ccccc34)[C@@](C(=O)OC)(c3cc4c(cc3OC)N(C=O)[C@H]3[C@@](O)(C(=O)OC)[C@H](OC(C)=O)[C@]5(CC)C=CCN6CC[C@]43[C@@H]65)C2)C1` [VCR (control), vincristine]: the “APO2.7 (%)” value in the series on K562 cells (10 nM agent) was 12%; with K562 cells (50 nM agent), 18%; with K562 cells (100 nM agent), 24%; in the series on K562 cells (500 nM agent) it was 29%; with K562 cells (1000 nM agent), 34%. Further, the “induction of apoptosis / chemosensitivity in telomestatin-treated K562 cells compared with control cells” value in the series on K562 cells is “enhanced induction of apoptosis”.
With `Nc1ccn([C@@H]2O[C@H](CO)[C@@H](O)[C@@H]2O)c(=O)n1` [cytosine arabimoside, cytosine arabinoside], the “induction of apoptosis / chemosensitivity in telomestatin-treated K562 cells compared with control cells” value in the series on K562 cells is reported as “significant chemosensitivity is not observed”.
Same read-out and setting: next, `COc1cc([C@@H]2c3cc4c(cc3[C@@H](O[C@@H]3O[C@@H]5CO[C@@H](C)O[C@H]5[C@H](O)[C@H]3O)[C@H]3COC(=O)[C@H]23)OCO4)cc(OC)c1O` [etoposide (VP-16), etoposide]: “significant chemosensitivity is not observed”.
As for `CN(Cc1cnc2nc(N)nc(N)c2n1)c1ccc(C(=O)N[C@@H](CCC(=O)O)C(=O)O)cc1` [methotrexate (MTX), methotrexate], the “induction of apoptosis / chemosensitivity in telomestatin-treated K562 cells compared with control cells” value in the series with K562 cells is on record as “significant chemosensitivity is not observed”.
For the molecule `Cc1oc2nc1-c1nc(co1)-c1nc(co1)-c1nc(co1)-c1nc(co1)-c1nc(co1)C1=NC(CS1)c1nc-2c(C)o1` (centres unmarked) [telomestatin], the “sensitivity of human normal hematopoietic progenitor cells” value in series [1] is listed as “significantly less sensitive”. The “time until proliferation is slowed” value in the series with OM9;22 or OM9;22R cells was at most 2 weeks.
